Data reported in patent US10913757B2, “Hydroxycinnamic derivatives, methods and uses thereof” (UNIVERSIDADE DO PORTO, priority 2016, dated 2021).
Values belong to the compound of their own block, whether it stands above or below them.

What was measured:
[1] = ABTS radical cation scavenging activity (TAC assay); type: biochemical; conditions: ethanol
Text: (§1) In an embodiment, the AntiOxCINs antioxidant ranking activity hierarchy was established by in vitro non-cell methods. The selected total antioxidant capacity (TAC) assays (DPPH, ABTS and GO) involved the spectrophotometric measurement of the radical absorbance decrease as a result of an in situ radical deactivation by an antioxidant. Compounds with higher antioxidant activity display lower IC50 values. […] This decrease was attenuated/ameliorated by the increment of the spacer length and/or the introduction of additional hydroxyl group in the aromatic ring.
(§2) The radical scavenging activity of AntiOxCINs was evaluated by means of total antioxidant capacity assays based on DPPH., ABTS.^+ and GO. radicals. All these methods involved the spectrophotometric measurement of the absorbance decrease resulting from radical (DPPH., ABTS.^+ or GO.) deactivation with an antioxidant. The results were expressed in IC50, which is defined as the minimum antioxidant concentration necessary to reduce the amount of radical by 50%. Antioxidant assays were performed in a multiplate reader (Powerwave XS Microplate Reader) of Bio-Tech instruments.
In an embodiment, the ABTS.^+ scavenging activity was evaluated as follows: ethanolic solutions of the test compounds with increasing concentrations (range between 10 μM and 500 μM) were prepared. ABTS.^+ radical cation solution was obtained by addition of 150 mM aqueous potassium persulfate solution (163 μL) to 10 mL of 7 mM aqueous ABTS solution followed by storage in the dark at room temperature for 16 h (2.45 mM final concentration). The solution was then diluted in ethanol to reach the absorbance of 0.72±0.02. After addition of the compound (20 μL), in triplicate, to ABTS.^+ solution (180 μL) the spectrophotometric measurement was carried out each minute over 15 minutes. […] Dose-response curves were established for the determination of IC50 values. Data are means±SEM of three independent experiments.

[2] = GO radical scavenging activity (TAC assay); type: biochemical; conditions: ethanol, absorbance 428 nm
Text: as §1, §2
In an embodiment, the GO′ scavenging activity was evaluated as follows: solutions of test compounds with concentrations from 5 μM to 75 μM were prepared in ethanol. An ethanolic solution of 5 mM GO′ was prepared and diluted to reach the absorbance of 1.00±0.02 at 428 nm. The addition (20 μL) in triplicate of compound solution to GO. solution (180 μL) was followed by absorbance measurement at 428 nm over 30 minutes, in the dark, at room temperature. […] Dose-response curves were established for the determination of IC50 values. Data are means±SEM of three independent experiments.

[3] = Redox properties by differential pulse and cyclic voltammetry; type: physicochemical; conditions: for reversibility of the oxidation reaction: cyclic voltammetry, physiological pH; for Ep (redox potential): physiological pH (7.4), voltammetry
Description: In an embodiment, and as an example, AntiOxCINs redox properties were evaluated (Table 1). Redox potentials are correlated with the ability of an antioxidant to donate a hydrogen atom and/or an electron to a free radical.
However, for pyrogallol derivatives (AntiOxCIN4, AntiOxCIN5 and AntiOxCIN7), a significant decrease in redox potentials was observed (Ep=0.034-0.057 V) (Table 1).
The voltammograms presented a diffusion peak and an adsorption post-peak at a more anodic potential correspondent to the oxidation of dissolved and adsorbed forms of the compounds, respectively. The oxidation waves can be related to the oxidation process of the pyrogallol moiety. The cyclic voltammograms also show the presence of two overlapped anodic peaks. The anodic peaks appeared to correspond to irreversible processes as any distinct reduction wave was not seen on the cathodic sweep. The existence of the additional phenolic group in the pyrogallol systems, when compared with the catechol ones, seems to influence the stabilization of the semiquinone intermediate and in turn the oxidative mechanism.
In an embodiment, the electrochemical analytical data was obtained using a computer controlled potentiostat Autolab PGSTAT302N (Metrohm Autolab, Utrecht, Netherlands). Generally, cyclic voltammetry (CV) data was acquired at a scan rate of 50 mVs^−1. Differential pulse voltammetry (DPV) results were acquired at a step potential of 4 mV, pulse amplitude of 50 mV and scan rate of 8 mVs^−1. The electrochemical signals were monitored by the General Purpose Electrochemical System (GPES) version 4.9, software package. All electrochemical experiments were performed at room temperature in an electrochemical cell that was placed in a Faraday cage in order to minimize the contribution of background noise to the analytical signal.
In an embodiment, the process of evaluation of AntiOxCINs redox properties was conducted as follows: stock solutions of each compound (10 mM) were prepared by dissolving the appropriate amount in ethanol. The voltammetric working solutions were prepared in the electrochemical cell, at a final concentration of 0.1 mM. The […] supporting electrolyte was prepared by diluting […] to 100 mL. Voltammetric data was acquired in a three-electrode system consisting of a glassy carbon electrode (GCE, d=2 mm) as working electrode, a counter electrode of platinum wire and a saturated Ag/AgCl reference electrode. In an embodiment, the evaluation of AntiOxCINs lipophilic properties was performed as follows: the electrochemical cell was a four-electrode system with arrays of micro liquid-liquid interfaces (μlTIES) containing two Ag/AgCl reference electrodes and two counter electrodes of Pt, one in each phase. The microporous membrane was sealed with a fluorosilicone sealant (Dow Corning 730) onto a glass cylinder which was filled with 4.0 mL of the aqueous phase, where the aliquots of AntiOxCINs solutions were added. The membrane was then immersed into the organic phase contained in the cell. The organic phase reference solution (a 2 mM BTPPACI+2 mM NaCl aqueous solution) was mechanically stabilized The aqueous supporting electrolyte solution was a Tris-HCl buffer 10 mM pH 7.0.

Compound: CS(=O)(=O)[O-].O=C(/C=C/c1ccc(O)c(O)c1)NCCCCCC[P+](c1ccccc1)(c1ccccc1)c1ccccc1 [AntiOxCIN2, (E)-(6-(3-(3,4-dihydroxyphenyl)prop-2-enamido)hexyl)triphenylphosphonium methanesulfonate]
IC50 [1]: 30.5 µM
IC50 [2]: 4.1 µM
reversibility of the oxidation reaction [3]: reversible reaction
Ep (redox potential) ([3]; listed as AntiOxClN2, methanesulfonate): 0.164 V

Compound: CS(=O)(=O)[O-].O=C(/C=C/c1ccc(O)c(O)c1)NCCCCCCCC[P+](c1ccccc1)(c1ccccc1)c1ccccc1 [AntiOxCIN3, (E)-(8-(3-(3,4-dihydroxyphenyl)acrylamido)octyl)triphenylphosphoniummethanesulfonate]
IC50 [1]: 27.9 µM
IC50 [2]: 2.8 µM
reversibility of the oxidation reaction [3]: reversible reaction
Ep (redox potential) ([3]; listed as AntiOxClN3): 0.170 V

Compound: CS(=O)(=O)[O-].O=C(/C=C/c1cc(O)c(O)c(O)c1)NCCCCCC[P+](c1ccccc1)(c1ccccc1)c1ccccc1 [AntiOxCIN4, (E)-(6-(3-(3,4,5-trihydroxyphenyl)prop-2-enamido)hexyl)triphenylphosphonium methanesulfonate]
IC50 [1]: 12.2 µM
IC50 [2]: 3.1 µM
reversibility of the oxidation reaction [3]: irreversible oxidation reaction
Ep (redox potential) ([3]; listed as AntiOxClN4, methanesulfonate): 0.034 V

Compound: CS(=O)(=O)[O-].O=C(/C=C/c1cc(O)c(O)c(O)c1)NCCCCCCCC[P+](c1ccccc1)(c1ccccc1)c1ccccc1 [AntiOxCIN5, (E)-(8-(3-(3,4,5-trihydroxyphenyl)acrylamido)octyl)triphenylphosphonium methanesulfonate]
IC50 [1]: 8.7 µM
IC50 [2]: 2.3 µM
reversibility of the oxidation reaction [3]: irreversible oxidation reaction
Ep (redox potential) ([3]; listed as AntiOxClN5, methanesulfonate): 0.046 V

Compound: CS(=O)(=O)[O-].O=C(/C=C/c1ccc(O)c(O)c1)NCCCCCCCCCC[P+](c1ccccc1)(c1ccccc1)c1ccccc1 [AntiOxCIN6, (E)-(10-(3-(3,4-dihydroxyphenyl)acrylamido)decyl)triphenylphosphonium methanesulfonate]
IC50 [1]: 23.5 µM
IC50 [2]: 2.7 µM
reversibility of the oxidation reaction [3]: reversible reaction
Ep (redox potential) ([3]; listed as AntiOxClN6, methanesulfonate): 0.174 V

Compound: CS(=O)(=O)[O-].O=C(/C=C/c1cc(O)c(O)c(O)c1)NCCCCCCCCCC[P+](c1ccccc1)(c1ccccc1)c1ccccc1 [AntiOxCIN7, (E)-(10-(3-(3,4,5-trihydroxyphenyl)acrylamido)decyl)triphenylphosphonium methanesulfonate]
IC50 [1]: 7.5 µM
IC50 [2]: 2.5 µM
reversibility of the oxidation reaction [3]: irreversible oxidation reaction
Ep (redox potential) ([3]; listed as AntiOxClN7, methanesulfonate): 0.057 V

IC50 [1]: 17.9 µM
IC50 [2]: 3.4 µM
reversibility of the oxidation reaction [3]: reversible reaction
Ep (redox potential) [3]: 0.168 V
Compound: O=C(O)/C=C/c1ccc(O)c(O)c1 [Caffeic acid, caffeic acid, reference compound]
